Results: patent US20060057156A1, “Materials and methods for inductions of immune tolerance” (priority 2002, published 2006)
Like-named read-outs stand apart in the source and are kept apart here.

Assays:
[1] = tested on: PBMC from EBV seropositive donors; format: cell-based, human; details: for IL-10 secretion by PBMC: EBV seropositive donors, peptides at 15 μg/ml, ELISA five days after stimulation; for gamma-IFN induction: control peptides of FIG. 6, seropositive donors
[2] = tested on: PBMC from EBV seropositive donors; assay: Suppression of proliferative and cytokine responses to mitogen, antigens and allergens; format: cell-based, human; details: three EBV seropositive donors, FIG. 6

## FLGIVLFIFGCLLVLGIWIY [P22]
[1]
  IL-10 secretion by PBMC: IL-10 inducing
[2]
  effect on proliferative and gamma-IFN responses against recall antigen (PPD): inhibit proliferative responses

## HDPLPQDPDNTDDNGPQDPD [P56]
[1]
  gamma-IFN induction: gamma-IFN inducing

## ILIIFIFRRDLLCPLGALCI [P14]
[1]
  IL-10 secretion by PBMC: shown to induce IL-10

## LFIFGCLLVLGIWIYLLEML [P23]
[1]
  IL-10 secretion by PBMC: IL-10 inducing
[2]
  effect on proliferative and gamma-IFN responses against recall antigen (PPD): inhibit proliferative responses

## LILLIIALYLQQNWWTLLVD [P31]
[1]
  IL-10 secretion by PBMC: IL-10 inducing
[2]
  effect on proliferative and gamma-IFN responses against recall antigen (PPD): inhibit proliferative responses

## LLFWLYIVMSDWTGGALLVL [P8]
[1]
  IL-10 secretion by PBMC: shown to induce IL-10

## LLLLALLFWLYIVMSDWTGG [P7]
[1]
  IL-10 secretion by PBMC: IL-10 inducing
[1]; listed as peptide 7
  IL-10 secretion by PBMC: one of many effective Tr1 IL-10 inducers
[2]
  effect on proliferative and gamma-IFN responses against recall antigen (PPD): inhibit proliferative responses

## LLLMITLLLIALWNLHGQAL [P18]
[1]
  IL-10 secretion by PBMC: IL-10 inducing
[2]
  effect on proliferative and gamma-IFN responses against recall antigen (PPD): inhibit proliferative responses

## LLWLLLFLAILIWMYYHGQR [P35]
[1]
  IL-10 secretion by PBMC: IL-10 inducing
[2]
  effect on proliferative and gamma-IFN responses against recall antigen (PPD): inhibit proliferative responses

## PRGPPLSSSLGLALLLLLLA [P4]
[1]; 20 seropositive donors, peptide 15 μg/ml
  percentage of EBV seropositive donors whose PBMC responded with IL-10: 80%
[1]
  IL-10 secretion by PBMC: IL-10 inducing
[2]
  effect on proliferative and gamma-IFN responses against recall antigen (PPD): inhibit proliferative responses

## QQNWWTLLVDLLWLLLFLAI [P33]
[1]
  gamma-IFN induction: gamma-IFN inducing

## TIWQLLAFFLAFFLDLILLY [P28]
[1]
  gamma-IFN induction: gamma-IFN inducing

## concanavalin A [Con A, reference compound]
[1]; regardless of EBV serological status
  response pattern to control mitogen / recall antigen: induced responses dominated by proliferation and γ-IFN production
